From US20080167272A1, “Thalidomide metabolites and methods of use” (Auckland Uniservices Limited, priority 2005, published 2008) come the findings set out here.

The test concerns TNF. As to the kind of experiment: LPS-induced TNF production by HPBL in culture. The note with it: FIG. 5. In kind it is cell-based, human. As to the method:
Blood (20 ml) each from seven healthy volunteers was collected into heparinized tubes, and was overlayed on top of 10 ml of Ficoll-Paque Plus (Amersham Biosciences AB, Uppsala, Sweden) in 50 ml Falcon polypropylene conical tubes (Becton Dickson Labware, Franklin Lakes, N.J.). The tubes were centrifuged for 30 min at 300×g and 4° C., and the layer of cells was removed and re-suspended at 1×10^6 cells/ml in A-MEM medium supplemented with foetal bovine serum (Moregate BioTech Ltd, Hamilton, New Zealand) (10% v/v), streptomycin sulphate (100 μg/ml) and penicillin-G (100 units/ml) (Sigma, St Louis, Mo., USA). Cells were added to a 24-well plate (Nunc, Kamstrup, Roskilde, Denmark) with LPS (Escherichia coli serotype 055:B5; Sigma, St. Louis, Mo., USA) plus thalidomide or CG at 0.04, 0.2, 1, 5, 25 & 100 μg/ml; or PG or PiG at 1, 5 & 25 μg/ml in a final volume of 1 ml. Wells containing cells only and cells plus LPS only were included as controls. After 12 hours of incubation, supernatants were removed and assayed immediately for TNF as described in section 4.
TNF was assayed using a commercially available ELISA kit (OpEIA human or murine TNF kit, PharMingen, San Diego, Calif., USA), according to the manufacturer's instructions. Briefly, samples (100 μl/well) in duplicate together with a serial dilution of TNF (31.25-2000 pg/ml) for the standard curve, were added to flat-bottom 96-well plates pre-coated with immobilised monoclonal anti-TNF antibody and incubated at room temperature for 2 h. The wells were then washed, biotinylated polyclonal antibody to TNF was added, followed by peroxidase-labelled streptavidin, and incubated at room temperature for 1 h. The wells were washed again, and the substrate, tetramethylbenzidine and hydrogen peroxide was added and after 10 min the reaction was stopped with 2 N sulphuric acid. The absorbance at 450 nm was determined using a microtitre plate reader.

The structures appear in SMILES notation.

As to `O=C1CCC(NC(=O)c2ccccc2C(=O)O)C(=O)N1` (centres unmarked) [CG, 2-{[(2,6-Dioxo-3-piperidinyl)amino]carbonyl}benzoic acid], the “effect on LPS-induced TNF production” value (HPBL, LPS 100 pg/ml, 12 h, all concentrations tested (PG, PiG: 1, 5, 25 μg/ml)) is given as “significantly decreased LPS-induced TNF levels in a dose-dependent manner”. The “TNF inhibition in vitro compared with thalidomide” value (human cell system) is given as “as active as thalidomide”.
